Measurements taken from PubChem BioAssay (NCI).
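Cultured in 96-well plates, cells were exposed to test compound for 48 hours across five concentrations. GI50 marks 50% less growth. Definition used: TGI = concentration required for complete inhibition of growth.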

Assays:
Assay in all cases: growth of human tumour cells (NCI), 48 h
[1] = tested on: UACC-62 melanoma
[2] = tested on: RPMI-8226 leukemia
[3] = tested on: MDA-N
[4] = tested on: UO-31 renal
[5] = tested on: SF-539 CNS
[6] = tested on: K-562 leukemia
[7] = tested on: UACC-257 melanoma
[8] = tested on: MALME-3M melanoma
[9] = tested on: NCI-H460 lung
[10] = tested on: HS 578T breast
[11] = tested on: A498 renal
[12] = tested on: SK-MEL-28 melanoma
[13] = tested on: SN12C renal
[14] = tested on: SNB-19 CNS
[15] = tested on: CAKI-1 renal
[16] = tested on: ACHN renal
[17] = tested on: TK-10 renal
[18] = tested on: OVCAR-5 ovarian
[19] = tested on: NCI-H23 lung
[20] = tested on: HCT-15 colon
[21] = tested on: OVCAR-4 ovarian
[22] = tested on: 786-0 renal
[23] = tested on: SNB-75 CNS
[24] = tested on: MCF7 breast
[25] = tested on: NCI/ADR-RES ovarian
[26] = tested on: SW-620 colon
[27] = tested on: HL-60(TB) leukemia
[28] = tested on: SF-268 CNS
[29] = tested on: HCT-116 colon
[30] = tested on: LOX IMVI melanoma
[31] = tested on: RXF 393 renal
[32] = tested on: A549 NSCLC
[33] = tested on: CCRF-CEM leukemia
[34] = tested on: NCI-H522 lung
[35] = tested on: M14 melanoma
[36] = tested on: IGROV1 ovarian
[37] = tested on: T-47D breast
[38] = tested on: KM12 colon
[39] = tested on: SF-295 CNS
[40] = tested on: DU-145 prostate
[41] = tested on: OVCAR-8 ovarian
[42] = tested on: HCC-2998 colon
[43] = tested on: SR leukemia
[44] = tested on: SK-MEL-2 melanoma
[45] = tested on: U251 CNS
[46] = tested on: MDA-MB-435
[47] = tested on: BT-549 breast
[48] = tested on: MDA-MB-231 breast
[49] = tested on: EKVX NSCLC
[50] = tested on: MOLT-4 leukemia
[51] = tested on: SK-MEL-5 melanoma
[52] = tested on: OVCAR-3 ovarian
[53] = tested on: SK-OV-3 ovarian
[54] = tested on: HOP-92 NSCLC
[55] = tested on: HT29 colon
[56] = tested on: COLO 205 colon
[57] = tested on: PC-3 prostate
[58] = tested on: NCI-H226 lung
[59] = tested on: HOP-62 NSCLC

CC(=O)OC(C)(C)/C=C/C(=O)[C@](C)(O)[C@H]1[C@H](O)C[C@@]2(C)[C@@H]3CC=C4[C@@H](C[C@H](O)C(=O)C4(C)C)[C@]3(C)C(=O)C[C@]12C
TGI [1]: 2.17 µM | TGI [2]: < 0.01 µM | TGI [3]: 2.39 µM | TGI [4]: < 0.0167 µM | TGI [5]: < 0.01 µM | TGI [6]: 16.8 µM | TGI [7]: 2.42 µM | TGI [8]: 1.55 µM | TGI [9]: 1.37 µM | TGI [10]: < 0.01 µM | TGI [11]: < 0.01 µM | TGI [12]: < 0.01 µM | TGI [13]: 2.99 µM | TGI [14]: 0.153 µM | TGI [15]: < 0.01 µM | TGI [16]: < 0.03 µM | TGI [17]: < 0.01 µM | TGI [18]: 13.8 µM | TGI [19]: 4.07 µM | TGI [20]: 4.99 µM | TGI [21]: < 0.01 µM | TGI [22]: 14.8 µM | TGI [23]: < 0.01 µM | TGI [24]: 7.66 µM | TGI [25]: 15.2 µM | TGI [26]: 7.54 µM | TGI [27]: < 0.01 µM | TGI [28]: < 0.01 µM | TGI [29]: 1.22 µM | TGI [30]: < 0.01 µM | TGI [31]: < 0.0128 µM | TGI [32]: 11.4 µM | TGI [33]: 0.423 µM | TGI [34]: < 0.01 µM | TGI [35]: < 0.01 µM | TGI [36]: < 0.0132 µM | TGI [37]: 0.543 µM | TGI [38]: 13.6 µM | TGI [39]: 0.0304 µM | TGI [40]: 1.05 µM | TGI [41]: 5.8 µM | TGI [42]: 4.45 µM | TGI [43]: 1.21 µM | TGI [44]: < 0.01 µM | TGI [45]: < 0.01 µM | TGI [46]: 2.46 µM | TGI [47]: 0.0201 µM | TGI [48]: < 0.01 µM | TGI [49]: < 0.0221 µM | TGI [50]: 2.78 µM | TGI [51]: 0.135 µM | TGI [52]: 0.17 µM | TGI [53]: < 0.0234 µM

Oc1cc2cccc[n+]2c2cccc(Cl)c12
GI50 [1]: 32.6 µM | GI50 [2]: 40.4 µM | GI50 [3]: 16.9 µM | TGI [3]: 33.5 µM | GI50 [4]: 31.3 µM | TGI [4]: 93 µM | GI50 [5]: 71.8 µM | GI50 [6]: 25.4 µM | TGI [6]: 76 µM | GI50 [7]: 21.7 µM | TGI [7]: 48.4 µM | GI50 [8]: 18.4 µM | TGI [8]: 40.4 µM | GI50 [9]: 82.1 µM | GI50 [54]: 15.8 µM | TGI [54]: 71.5 µM | GI50 [12]: 21.8 µM | GI50 [13]: 17.2 µM | TGI [13]: 45.4 µM | GI50 [14]: 92.3 µM | GI50 [16]: 21.7 µM | TGI [16]: 52.5 µM | GI50 [19]: 25.2 µM | TGI [19]: 72.5 µM | GI50 [20]: 49.4 µM | GI50 [21]: 16.2 µM | TGI [21]: 39.5 µM | GI50 [24]: 16.7 µM | TGI [24]: 36.5 µM | GI50 [26]: 32.8 µM | GI50 [55]: 40.7 µM | GI50 [27]: 35.8 µM | GI50 [29]: 55.7 µM | GI50 [56]: 26.3 µM | TGI [56]: 87.3 µM | GI50 [31]: 26.1 µM | TGI [31]: 74.6 µM | GI50 [33]: 26.1 µM | TGI [33]: 73.7 µM | GI50 [34]: 94.8 µM | GI50 [35]: 66.8 µM | GI50 [36]: 31.4 µM | GI50 [39]: 95.3 µM | GI50 [40]: 62.3 µM | GI50 [42]: 52.4 µM | GI50 [43]: 67.5 µM | GI50 [45]: 42 µM | GI50 [46]: 17.4 µM | TGI [46]: 40.8 µM | GI50 [47]: 50.6 µM | GI50 [48]: 91.5 µM | GI50 [49]: 38.4 µM | GI50 [50]: 34.9 µM | GI50 [51]: 19.7 µM | TGI [51]: 34.7 µM

CC1C[C@]2(C)C(=S)Nc3ccccc3[C@@H]2Nc2ccccc21 (stereo not given in full)
TGI [1]: 34.4 µM | TGI [57]: 35.7 µM | TGI [2]: > 100 µM | TGI [3]: 37.4 µM | TGI [4]: 32.8 µM | TGI [5]: 34.2 µM | TGI [6]: > 100 µM | TGI [7]: 32.5 µM | TGI [8]: 30.8 µM | TGI [9]: 29.6 µM | TGI [54]: 25.2 µM | TGI [58]: 36.6 µM | TGI [10]: 85.5 µM | TGI [11]: 36.3 µM | TGI [12]: 12.7 µM | TGI [13]: 37.5 µM | TGI [14]: 57.4 µM | TGI [15]: 79 µM | TGI [16]: 39.5 µM | TGI [17]: 39.5 µM | TGI [18]: 43.5 µM | TGI [19]: 33.9 µM | TGI [20]: 50.8 µM | TGI [21]: 38.6 µM | TGI [22]: 34.1 µM | TGI [23]: 61 µM | TGI [24]: 27.3 µM | TGI [25]: 36.6 µM | TGI [26]: 55.7 µM | TGI [59]: 31.8 µM | TGI [55]: 26.6 µM | TGI [27]: 77 µM | TGI [28]: 16.4 µM | TGI [29]: 26.7 µM | TGI [56]: 33.8 µM | TGI [30]: 28.5 µM | TGI [31]: 34.8 µM | TGI [32]: 37.8 µM | TGI [33]: 54.4 µM | TGI [35]: 32.4 µM | TGI [36]: 40.3 µM | TGI [37]: 41 µM | TGI [38]: 28.9 µM | TGI [39]: 37.9 µM | TGI [40]: 17.5 µM | TGI [41]: 29.5 µM | TGI [42]: 40.6 µM | TGI [43]: > 100 µM | TGI [44]: 32 µM | TGI [46]: 31.2 µM | TGI [48]: 26.3 µM | TGI [49]: 57.5 µM | TGI [50]: 56.1 µM | TGI [51]: 31.7 µM | TGI [52]: 32.1 µM

CC1=C(OC2OC(CO)C(O)C(O)C2O)C(=O)C[C@H]2C1=CC[C@@H]1[C@@]2(C)C(=O)C[C@]2(C)[C@@H]([C@@](C)(O)C(=O)CCC(C)(C)O)[C@H](O)C[C@@]12C (stereo not given in full)
TGI [1]: > 100 µM | TGI [57]: > 100 µM | TGI [3]: > 100 µM | TGI [4]: > 100 µM | TGI [5]: > 100 µM | TGI [6]: > 100 µM | TGI [7]: > 100 µM | TGI [8]: > 100 µM | TGI [9]: > 100 µM | TGI [54]: > 100 µM | TGI [58]: > 100 µM | TGI [11]: > 100 µM | TGI [12]: > 100 µM | TGI [13]: > 100 µM | TGI [14]: > 100 µM | TGI [15]: > 100 µM | TGI [16]: > 100 µM | TGI [17]: > 100 µM | TGI [18]: > 100 µM | TGI [19]: > 100 µM | TGI [20]: > 100 µM | TGI [21]: > 100 µM | TGI [22]: > 100 µM | TGI [23]: > 100 µM | TGI [24]: > 100 µM | TGI [25]: > 100 µM | TGI [26]: > 100 µM | TGI [59]: > 100 µM | TGI [55]: > 100 µM | TGI [27]: > 100 µM | TGI [28]: > 100 µM | TGI [29]: > 100 µM | TGI [56]: > 100 µM | TGI [30]: > 100 µM | TGI [31]: > 100 µM | TGI [32]: > 100 µM | TGI [33]: > 100 µM | TGI [34]: > 100 µM | TGI [35]: > 100 µM | TGI [36]: > 100 µM | TGI [37]: > 100 µM | TGI [38]: > 100 µM | TGI [39]: > 100 µM | TGI [40]: > 100 µM | TGI [41]: > 100 µM | TGI [42]: > 100 µM | TGI [43]: > 100 µM | TGI [44]: > 100 µM | TGI [45]: > 100 µM | TGI [46]: > 100 µM | TGI [47]: > 100 µM | TGI [48]: > 100 µM | TGI [49]: > 100 µM | TGI [50]: > 100 µM | TGI [51]: > 100 µM | TGI [52]: > 100 µM | TGI [53]: > 100 µM
